The values below come from ChEMBL document CHEMBL3430912, “GSK Tres Cantos Anti-Kinetoplastid Screening (TCAKS) Data”.

In data set [1] the test system is Trypanosoma brucei brucei. Nature of the data set: GSK_TCAKS: pIC50 Trypanosoma brucei viability assay using fluorescence intensity. Assay plates (1536-well) were prepared by dispensing 25nL of compound solution per well using an Echo acoustic dispenser (Labcyte). It is filed as functional, organism-based. The settings on record: Lister 427, 2 h.
In data set [2] the test system is Leishmania donovani. Nature of the data set: GSK_TCAKS: pIC50 Leishmania donovani viability assay using fluorescence intensity. Assay plates (1536-well) were prepared by adding 30nL per well of compound. For single shot assay, the final compound concentration was 5uM. […] Briefly, eGFP LdBOB axenic amastigotes were harvested, fixed and counted in a CASY cell counter (Roche-Applied Science). A final concentration of 1.5 * 10^5 cells per well were prepared in amastigote media containing 500 U/mL penicillin/streptomycin (Invitrogen) and 6uL was dispensed to each experimental well using a Multidrop Combi dispenser (Thermo Scientific). 6uL of assay media was dispensed to control columns used as reference for 100% compound response. Following incubation for 72 h at 37C, 5% CO2, 2 uL of resazurin was added to each well at a final concentration of 0.5 mM in phosphate buffered saline (PBS) with IGEPAL (Sigma-Aldrich), 0.05% (v/v). Type of data set: functional, organism-based. Background: The colour change of resazurin is a common sign of viable cells or microbes.

In data set [3] the test system is Trypanosoma cruzi. Nature of the data set: (§1) GSK_TCAKS: pIC50 Trypanosoma cruzi Imaging: Infected Cells. […] Cells were then washed once with PBS before infection. T. cruzi trypomastigotes, collected at days 5 to 8 after infection from LLC-MK2 parasite infected cultures, were allowed to swim out for 4h at 37C from a centrifuged pellet (2,500 rpm/10 min/room temperature). Trypomastigotes were then collected and counted in a CASY Cell Counter. Trypomastigotes, in supplemented DMEM, were added to H9c2 cultures in a multiplicity of infection of 1 and incubated for 18 h. Cells were washed once with PBS before incubation of the infected H9c2 monolayer with trypsin (Life-Technologies) to detach cells from the flask. Cells were counted in a CASY Cell Counter using a 150 um capillary and their density set at 5 * 10^4 cells per mL in supplemented assay DMEM. Infected H9c2 were dispensed into 384-well poly-lysine coated assay plates at 50uL per well using a Multidrop Combi dispenser. After seeding them, the plates were incubated at 37C, 5% CO2 for 72h. Cultures were then fixed and stained by addition of 50 uL of a solution containing 8% formaldehyde and 4 uM DRAQ5 DNA dye (BioStatus, UK) per well. […] Five images were collected per well for reliable statistical analysis. Automated image analysis was performed with a script developed on Acapella High Content Imaging and Analysis Software (PerkinElmer). Output: percentage of infected cells per well as a second infection marker. Type of data set: functional, organism-based, Rattus norvegicus. As to conditions: H9c2, 4 h.

The nature of data set [4]: GSK_TCAKS: pIC50 HepG2 human cell line viability assay using luminiscence. […] Seeding density was checked to ensure that new mono-layers were not more than 50% confluent at the time of harvesting. Cell suspension was added to 500 mL of the same medium at a final density of 1.2 * 10^5 cells/mL. This cell suspension was dispensed (25 uL, 3000 cells per well) into 384-well clear-bottom plates using a Multidrop Combi dispenser. Prior to addition of the cell suspension, the screening compounds (250 nL) were pre-dispensed into the plates with an Echo liquid handler. Plates were incubated for 48 h at 37C, 5% CO2. After incubation, plates equilibrated at room temperature for 30 min before proceeding to develop the luminescent signal. The signal developer, CellTiter-Glo Reagent, was allowed to equilibrate at room temperature for 30 min and added to the plates (25uL per well) using a Multidrop Combi dispenser. Plates were left for 10 min at room temperature for stabilization and then read using a ViewLux. It is filed as toxicity, cell-based. Background: In ATP-based viability assays light output follows the ATP content of the culture.

For data set [5], the system named is Trypanosoma cruzi. Nature of the data set: GSK_TCAKS: pIC50 Trypanosoma cruzi viability assay using beta-GAL activity. This assay was run at single shot at 5uM compound concentration per well. The biological reagents consisted of NIH-3T3 host cells and trypomastigotes parasitic cells; both cell types were set to a 3.3 * 10^5 cells/mL dilution in assay DMEM by means of a CASY cell counter device using a 60um capillary. 6 uL of the mixture were dispensed per well (about 1 * 10^3 host-cells and 1 * 10^3 parasites) with a Multidrop Combi dispenser. […] In all wells, the percentage of DMSO never exceeded 0.5%. Plates incubated for four days at 37C, 5% CO2. The substrate used for the assay fluorescence intensity (FLINT) readout was resorufin-beta-D-galactopiranoside (Sigma-Aldrich) at 5uM per well. It was diluted in PBS supplemented with the soft detergent Igepal (Fluka). It is filed as functional, organism-based, Mus musculus. The settings on record: Tulahuen, NIH3T3.

The target in data set [6] is Sterol 14-alpha demethylase (Trypanosoma cruzi (strain CL Brener), UniProt Q7Z1V1). In words: GSK_TCAKS: pIC50 CYP51 from Trypanosoma cruzi. Type of data set: functional.
Sequence of Sterol 14-alpha demethylase (Q7Z1V1 whole entry): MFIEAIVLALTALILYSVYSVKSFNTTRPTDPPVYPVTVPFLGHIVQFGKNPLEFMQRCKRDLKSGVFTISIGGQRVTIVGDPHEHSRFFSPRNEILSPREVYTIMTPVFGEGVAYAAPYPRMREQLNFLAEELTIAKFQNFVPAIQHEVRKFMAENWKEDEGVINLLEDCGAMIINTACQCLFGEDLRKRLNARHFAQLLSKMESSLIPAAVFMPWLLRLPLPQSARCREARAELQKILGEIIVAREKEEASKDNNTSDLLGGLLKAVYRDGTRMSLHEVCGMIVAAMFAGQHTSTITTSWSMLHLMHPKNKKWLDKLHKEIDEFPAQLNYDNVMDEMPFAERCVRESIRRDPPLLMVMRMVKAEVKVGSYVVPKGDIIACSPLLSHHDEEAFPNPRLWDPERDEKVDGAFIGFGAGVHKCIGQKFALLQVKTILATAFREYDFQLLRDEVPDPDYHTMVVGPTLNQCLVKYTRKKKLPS
In data set [7] the test system is Trypanosoma brucei brucei. In words: GSK_TCAKS: pIC50 Trypanosoma brucei viability assay using luminiscence. Assay plates (1536-well) were prepared. T. brucei cultures were harvested and counted in a CASY cell counter. A parasite suspension was prepared at a final concentration of 5 * 10^4 cells/mL in complete HMI9 medium and 6uL was dispensed to all wells containing compounds using a Multidrop Combi dispenser. 6uL of HMI9 media with 0.4% DMSO were dispensed to control columns. Plates were incubated for 24 h at 37C, 5% CO2 then tempered for 10 min at room temperature. ATP content was quantified by adding 4 uL of CellTiter-Glo Reagent (Promega) according to the manufacturer's instructions. Luminescence was measured using a ViewLux. It is filed as functional, organism-based. As to conditions: Lister 427, CASY.

Data set [8] concerns Trypanosoma cruzi. In words: GSK_TCAKS: pIC50 Trypanosoma cruzi Imaging: Amastigotes/Cell. […] Cells were then washed once with PBS before infection. T. cruzi trypomastigotes, collected at days 5 to 8 after infection from LLC-MK2 parasite infected cultures, were allowed to swim out for 4h at 37C from a centrifuged pellet (2,500 rpm/10 min/room temperature). Trypomastigotes were then collected and counted in a CASY Cell Counter. Trypomastigotes, in supplemented DMEM, were added to H9c2 cultures in a multiplicity of infection of 1 and incubated for 18 h. Cells were washed once with PBS before incubation of the infected H9c2 monolayer with trypsin (Life-Technologies) to detach cells from the flask. Cells were counted in a CASY Cell Counter using a 150 um capillary and their density set at 5 * 10^4 cells per mL in supplemented assay DMEM. Infected H9c2 were dispensed into 384-well poly-lysine coated assay plates at 50uL per well using a Multidrop Combi dispenser. After seeding them, the plates were incubated at 37C, 5% CO2 for 72h. Cultures were then fixed and stained by addition of 50 uL of a solution containing 8% formaldehyde and 4 uM DRAQ5 DNA dye (BioStatus, UK) per well. […] Five images were collected per well for reliable statistical analysis. Automated image analysis was performed with a script developed on Acapella High Content Imaging and Analysis Software (PerkinElmer). Output: number of amastigotes per cell as infection level measurement. Type of data set: functional, organism-based, Rattus norvegicus. As to conditions: H9c2, 4 h.

Data set [9] relates to Leishmania donovani. Nature of the data set: GSK_TCAKS: pIC50 Leishmania donovani Imaging: Infected Macrophages. Assay plates (384-well) were prepared by adding 250nL of compound to each well. For single shot assay, the final compound concentration was 5 uM. […] Automated image analysis was performed with a script developed on Acapella High Content Imaging and Analysis Software (PerkinElmer). Output: Percent of infected macrophage cells were reported for each well. It is filed as functional, organism-based, Homo sapiens. As to conditions: THP-1.

The subject of data set [10] is Trypanosoma cruzi. The data set is described as §1, with “H2C9” for “Trypanosoma cruzi”, “H9c2 Host Cardiomyocytes.” for “Infected Cells.”, “Number” for “percentage”, “H9c2 Host Cardiomyocytes nuclei to determine drug-related cytotoxicity.” for “infected cells per well as a second infection marker.”. Type of data set: functional, organism-based, Rattus norvegicus. The settings on record: H9c2, 4 h.

In data set [11] the test system is Leishmania donovani. Nature of the data set: GSK_TCAKS: pIC50 Leishmania donovani Imaging: Amastigotes/Macrophages. Assay plates (384-well) were prepared by adding 250nL of compound to each well. For single shot assay, the final compound concentration was 5 uM. […] Automated image analysis was performed with a script developed on Acapella High Content Imaging and Analysis Software (PerkinElmer). Output: Average number of amastigotes per macrophage cell were reported for each well. Type of data set: functional, organism-based, Homo sapiens. As to conditions: THP-1.

Data set [12] deals with Leishmania donovani. In words: GSK_TCAKS: pIC50 Leishmania donovani Imaging: THP-1 Host Macrophages. Assay plates (384-well) were prepared by adding 250nL of compound to each well. For single shot assay, the final compound concentration was 5 uM. […] Automated image analysis was performed with a script developed on Acapella High Content Imaging and Analysis Software (PerkinElmer). Output: THP-1 cell count were reported for each well. Type of data set: functional, organism-based, Homo sapiens.

pIC50: −log10 of the molar value.

As usually defined, the pIC50 is the negative decadic logarithm of the IC50, by convention in mol/L. Usually IC50 stands for the concentration at which inhibition is half-maximal. In the case of `COc1ccc2ncc(=O)n(CCN3CCC(NCc4ccc(-c5cccs5)cc4)CC3)c2n1`, the negative logarithm of the IC50 (pIC50) is 5.50 in [1]; 5.80 in the data set on Leishmania donovani [2]; 5.80 with Trypanosoma cruzi [3]; 5.70 with Trypanosoma cruzi [5]; 4.60 in [6]; 5.20 in data set [7]. Also, the pIC50 in the data set with Trypanosoma cruzi [8] was 6.80; in the data set on Leishmania donovani [9], 5.50; in the data set with Trypanosoma cruzi [10], 5.10; with Leishmania donovani [11], 5.90; with Leishmania donovani [12], 5.00. The IC50 at 48 h in data set [4] is 12.6 µM.

As for `Cc1cc(-c2cccc3ccccc23)nc2nc(N)nc(N)c12`, the negative-log IC50 (pIC50) was 4.50 in data set [1]; 5.70 in the data set with Leishmania donovani [2]; below 4.30 with Trypanosoma cruzi [3]; 4.40 with Trypanosoma cruzi [5]; below 4.00 in data set [6]; 4.70 in data set [7]. For the same molecule, the pIC50 with Trypanosoma cruzi [8] is 4.50; with Leishmania donovani [9], 5.30; in the data set with Trypanosoma cruzi [10], below 4.30; in the data set with Leishmania donovani [11], 6.00; in the data set on Leishmania donovani [12], 4.30. 50.1 µM corresponded to half-maximal inhibition in [4] (IC50 at 48 h).

Turning to `CN(Cc1nc2cccc(C(=O)N3CCN(Cc4ccccc4)CC3)c2[nH]1)C1CCCc2cccnc21` (configuration not stated), the pIC50 in data set [1] is 6.20; in the data set on Leishmania donovani [2] it was 5.30; in the data set with Trypanosoma cruzi [3], 6.30; with Trypanosoma cruzi [5], 6.10; in data set [6], 4.40; in data set [7] it was 6.00. Besides, the pIC50 in the data set on Trypanosoma cruzi [8] was 6.30; with Leishmania donovani [9], 5.90; with Trypanosoma cruzi [10] it was 5.10; in the data set on Leishmania donovani [11] it was 6.10; with Leishmania donovani [12] it was 5.00. In [4], this molecule showed an IC50 at 48 h of 12.6 µM.

For `O=C(NCCc1csc(-c2ccc(F)cc2)n1)c1ccco1`, the pIC50 in data set [1] is 6.40; with Leishmania donovani [2], below 4.30; with Trypanosoma cruzi [3], 5.80; in the data set on Trypanosoma cruzi [5] it was 5.65; in data set [6], below 4.00; in data set [7], 6.30. In addition, the pIC50 is 5.90 in the data set with Trypanosoma cruzi [8]; below 4.30 with Leishmania donovani [9]; below 4.30 in the data set on Trypanosoma cruzi [10]; below 4.30 in the data set on Leishmania donovani [11]; below 4.30 with Leishmania donovani [12]. In data set [4], this molecule had an IC50 at 48 h above 100 µM.

`CCCCn1c(=O)c2c(N)onc2n(CCCC)c1=O`: the pIC50 is 6.20 in data set [1]; below 4.30 in the data set with Leishmania donovani [2]; 4.50 in the data set on Trypanosoma cruzi [3]; 4.60 with Trypanosoma cruzi [5]; 4.10 in data set [6]; 6.30 in data set [7]. For the same molecule, the pIC50 in the data set on Trypanosoma cruzi [8] is 4.60; in the data set with Leishmania donovani [9] it was below 4.30; in the data set with Trypanosoma cruzi [10] it was 4.60; in the data set on Leishmania donovani [11], 4.50; in the data set on Leishmania donovani [12], below 4.30. In data set [4], this molecule gave an IC50 at 48 h of 50.1 µM.

Consider `c1ccc(Nc2nc3ccccc3[nH]2)nc1`, for which the pIC50 in [1] was 4.80; in the data set with Leishmania donovani [2], 4.60; in the data set with Trypanosoma cruzi [3], 4.60; with Trypanosoma cruzi [5] it was 5.10; in data set [6] it was below 4.00; in data set [7] it was 4.60. The pIC50 in the data set with Trypanosoma cruzi [8] is 5.00; with Leishmania donovani [9] it was 5.10; with Trypanosoma cruzi [10], 5.00; in the data set on Leishmania donovani [11], 5.10; with Leishmania donovani [12], 4.60. The molecule also had an IC50 at 48 h in data set [4] of 79.4 µM.
